Assay results published in patent US20260317319A1, “NOVEL ERGOLINES AND METHODS OF TREATING MOOD DISORDERS” (Gilgamesh Pharma Inc., priority 2023, published 2026).

Tests used:
[1] = biological target: T1, Alpha2A adrenergic receptor (Homo sapiens, UniProt P08913); assay: Ca2+ flux functional assay at Alpha2A; format: cell-based; settings: for maximal efficacy at Alpha2A: "higher" is compared to the N-methyl compound LSD; for Emax: agonist, Ca2+ flux, max dose, read-out: Alpha 2A % Act @ Max Dose
T1 construct: expressed in transfected cells
T1 sequence (P08913 1-465): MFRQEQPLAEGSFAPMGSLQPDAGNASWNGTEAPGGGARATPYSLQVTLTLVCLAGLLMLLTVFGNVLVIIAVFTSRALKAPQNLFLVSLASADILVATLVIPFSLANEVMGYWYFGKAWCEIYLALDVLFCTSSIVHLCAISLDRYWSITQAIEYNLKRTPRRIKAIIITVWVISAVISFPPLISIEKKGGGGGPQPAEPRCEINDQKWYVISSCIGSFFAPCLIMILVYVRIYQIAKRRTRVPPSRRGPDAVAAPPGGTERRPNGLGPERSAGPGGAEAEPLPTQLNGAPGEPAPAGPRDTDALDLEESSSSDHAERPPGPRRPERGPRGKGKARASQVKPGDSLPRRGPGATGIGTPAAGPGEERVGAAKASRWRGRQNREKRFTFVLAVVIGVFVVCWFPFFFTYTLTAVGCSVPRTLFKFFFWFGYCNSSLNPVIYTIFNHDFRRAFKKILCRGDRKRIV
Experimental: Functional Assays at Adrenergic and Dopamine Receptors. Agonist activity at Alpha1A, Alpha2A, D1, and D2 receptors was determined using a FLIPR Ca^2+ flux assay at WuXi AppTec (Hong Kong) Limited according to their standard protocols. Briefly, stably transfected cells expressing the receptor of interest were grown and plated in a 384 well plate and incubated at 37° C. and 5% CO2 overnight. A solution of 250 mM probenecid in 1 mL FLIPR assay buffer was prepared fresh. This was combined with a fluorescent dye (Fluo-4 Direct™) to make a final assay concentration of 2.5 mM. […] The fluorescent dye was then added to the assay plate along with assay buffer to a final volume of 40 μL. The cell plate was incubated for 50 min at 37° C. and 5% CO2 and placed into the FLIPR Tetra along with the compound plate. 10 μL of references and compounds were then transferred from the compound plate into the cell plate and the fluorescent signal was read.

C57BL/6 mice = assay: Automated mouse head twitch response (HTR) assay (video tracking); format: in vivo; settings: for # HTR/20 min at Most Efficacious Dose / Most Efficacious Dose for Peak HTR/min / Most Efficacious Dose for # HTR/20 min / Peak HTR/min at Most Efficacious Dose: sc
Experimental: Disclosed compounds were tested for their ability to induce a head twitch response (HTR) in mice using an automated video tracking procedure, with the results summarized in Table 8 and FIG. 4.
Animals. Adult male C57BL/6 mice aged 8-10 weeks (Jackson Labs, Bar Harbor, ME; body weight 18-25 g) were used in this experiment. Animals were group housed under environmentally controlled temperatures and 12-hour light/dark cycles (lights on between 06:00-18:00 h), with ad libitum food and water. Mice were habituated to the facility for at least 5 days prior to testing. All animal procedures were approved by the local IACUC and conducted in accordance with the NIH Guide for the Care and Use of Laboratory Animals.
Procedure. Mice were administered one dose of the drug and immediately placed into a small open field for behavioral observation. High-speed video of animals' behavior was captured continuously for 20 min. Video recordings were imported into an image processing software, which detects multiple points of interest on each animal's body, including the left and right ear. HTR events were defined as periodic deviations of ear locations from temporally averaged ear locations. Predefined thresholds for magnitude and frequency of location deviations were used to filter HTR events from random head movements. The method was validated by comparing detected events with manual (human) observations and found to have an accuracy >95%. The total number of HTR events counted during the 20-min recording and the rate in HTR/min calculated over 2-min bins were determined for each animal at each dose.
Statistical Analysis. The data points shown are the mean±standard error of the mean (SEM).

5-HT2A receptor = 5-HT2A receptor (Homo sapiens, UniProt P28223); assay: biochemical; format: binding; design: expressed in transfected cells; host or cells: HEK293, stably transfected; settings: [3H]ketanserin 1 nM; HEK293 stable cell line; 1 h, 25 °C
Method in brief: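 Test compounds competed with [^3H]ketanserin for receptor binding, and affinity was derived from the radioligand displacement.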

[2] = 20 min recording, mean, at each compound's most efficacious dose (35*, 43*, 44*: suppressed below vehicle 14.5, dose is that of least suppression)
[3] = dose giving highest peak HTR/min (35*, 43*, 44*: dose that resulted in the least suppression)
[4] = dose giving most HTR/20 min (35*, 43*, 44*: dose that resulted in the least suppression)
[5] = rate over 2-min bins, mean, at each compound's most efficacious dose (35*, 43*, 44*: suppressed below vehicle 1.62, dose is that of least suppression)

5-HT2A receptor, sequence (P28223 whole entry): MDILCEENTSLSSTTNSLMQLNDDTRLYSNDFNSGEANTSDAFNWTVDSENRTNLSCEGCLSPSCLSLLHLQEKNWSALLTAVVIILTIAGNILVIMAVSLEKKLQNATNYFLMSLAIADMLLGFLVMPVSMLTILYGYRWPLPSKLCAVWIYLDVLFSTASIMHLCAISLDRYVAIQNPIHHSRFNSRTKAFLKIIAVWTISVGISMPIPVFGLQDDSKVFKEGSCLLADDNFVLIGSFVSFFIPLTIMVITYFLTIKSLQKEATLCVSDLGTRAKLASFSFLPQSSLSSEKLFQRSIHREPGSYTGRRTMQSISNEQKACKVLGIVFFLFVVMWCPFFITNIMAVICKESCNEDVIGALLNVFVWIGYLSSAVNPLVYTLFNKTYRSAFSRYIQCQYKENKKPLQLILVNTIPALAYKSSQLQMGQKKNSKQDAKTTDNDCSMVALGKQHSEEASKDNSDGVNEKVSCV

Structure (SMILES) | maximal efficacy at Alpha2A [1] | # HTR/20 min at Most Efficacious Dose (C57BL/6 mice; [2]) [HTR/20 min] | Most Efficacious Dose for Peak HTR/min (C57BL/6 mice; [3]) | Most Efficacious Dose for # HTR/20 min (C57BL/6 mice; [4]) | Peak HTR/min at Most Efficacious Dose (C57BL/6 mice; [5]) [HTR/min] | Ki (5-HT2A receptor) [nM] | further results
CCN(CC)C(=O)[C@@H]1C=C2c3cccc4[nH]cc(c34)C[C@H]2N(CCCF)C1 [Compound 2, (6aR,9R)—N,N-diethyl-7-(3-fluoropropyl)-4,6,6a,7,8,9-hexahydroindolo[4,3-fg]quinoline-9-carboxamide] | substantially higher maximal efficacy | – | – | – | – | – | Emax [1]: 65%
CCCN1C[C@H](C(=O)N[C@H](C)CC)C=C2c3cccc4[nH]cc(c34)C[C@H]21 [Compound 3, (6aR,9R)—N—((R)-sec-butyl)-7-propyl-4,6,6a,7,8,9-hexahydroindolo[4,3-fg]quinoline-9-carboxamide] | substantially higher maximal efficacy | – | – | – | – | – | Emax [1]: 96.8%
CCCN1C[C@H](C(=O)N2[C@@H](C)C[C@@H]2C)C=C2c3cccc4[nH]cc(c34)C[C@H]21 [Compound 4, ((2S,4S)-2,4-dimethylazetidin-1-yl)((6aR,9R)-7-propyl-4,6,6a,7,8,9-hexahydroindolo[4,3-fg]quinolin-9-yl)methanone] | substantially higher maximal efficacy | – | – | – | – | – | Emax [1]: 103%
CCCN1C[C@H](C(=O)NC(CC)CC)C=C2c3cccc4[nH]cc(c34)C[C@H]21 [Compound 6, (6aR,9R)—N-(pentan-3-yl)-7-propyl-4,6,6a,7,8,9-hexahydroindolo[4,3-fg]quinoline-9-carboxamide] | substantially higher maximal efficacy | – | – | – | – | – | –
C=CCN1C[C@H](C(=O)N[C@H](C)CC)C=C2c3cccc4[nH]cc(c34)C[C@H]21 [Compound 8, (6aR,9R)-7-allyl-N—((R)-sec-butyl)-4,6,6a,7,8,9-hexahydroindolo[4,3-fg]quinoline-9-carboxamide] | – | 21.375 | (3.2) mg/kg, sc | (1) mg/kg, sc | 2.14 | – | –
CCN(CC)C(=O)[C@@H]1C=C2c3cccc4[nH]cc(c34)C[C@H]2N(Cc2ccccc2OC)C1 [Compound 10, (6aR,9R)—N,N-diethyl-7-(2-methoxybenzyl)-4,6,6a,7,8,9-hexahydroindolo[4,3-fg]quinoline-9-carboxamide] | very low efficacy agonists | – | – | – | – | – | Emax [1]: 36.5%
CCN(CC)C(=O)[C@@H]1C=C2c3cccc4[nH]cc(c34)C[C@H]2N(CCc2ccccc2OC)C1 [Compound 11, (6aR,9R)—N,N-diethyl-7-(2-methoxyphenethyl)-4,6,6,7,8,9-hexahydroindolo[4,3-fg]quinoline-9-carboxamide] | very low efficacy agonists | – | – | – | – | – | –
CCN(CC)C(=O)[C@@H]1C=C2c3cccc4[nH]cc(c34)C[C@H]2N(Cc2cccc(OC)c2)C1 [Compound 18, (6aR,9R)—N,N-diethyl-7-(3-methoxybenzyl)-4,6,6a,7,8,9-hexahydroindolo[4,3-fg]quinoline-9-carboxamide] | – | 7.62 | (0.1) mg/kg, sc | (3.2) mg/kg, sc | 1.12 | – | –
CCN(CC)C(=O)[C@@H]1C=C2c3cccc4[nH]cc(c34)C[C@H]2N(Cc2ccc(OC)cc2)C1 [Compound 19, (6aR,9R)—N,N-diethyl-7-(4-methoxybenzyl)-4,6,6a,7,8,9-hexahydroindolo[4,3-fg]quinoline-9-carboxamide] | – | 9.50 | (1) mg/kg, sc | (10) mg/kg, sc | 1.31 | – | –
CCN(CC)C(=O)[C@@H]1C=C2c3cccc4[nH]cc(c34)C[C@H]2N(Cc2ccc(F)cc2)C1 [Compound 49, (6aR,9R)—N,N-diethyl-7-(4-fluorobenzyl)-4,6,6a,7,8,9-hexahydroindolo[4,3-fg]quinoline-9-carboxamide] | – | – | – | – | – | 1.26 | –
CCN(CC)C(=O)[C@@H]1C=C2c3cccc4[nH]cc(c34)C[C@H]2N(Cc2ccc(Cl)cc2)C1 [Compound 50, (6aR,9R)-7-(4-chlorobenzyl)-N,N-diethyl-4,6,6a,7,8,9-hexahydroindolo[4,3-fg]quinoline-9-carboxamide] | – | – | – | – | – | 4.15 | –
CCN(CC)C(=O)[C@@H]1C=C2c3cccc4[nH]cc(c34)C[C@H]2N(Cc2cccc(O)c2)C1 [Compound 62, (6aR,9R)—N,N-diethyl-7-(3-hydroxybenzyl)-4,6,6a,7,8,9-hexahydroindolo[4,3-fg]quinoline-9-carboxamide] | – | – | – | – | – | 6.9 | –
CCN(CC)C(=O)[C@@H]1C=C2c3cccc4[nH]cc(c34)C[C@H]2N(Cc2ccon2)C1 [Compound 70, (6aR,9R)—N,N-diethyl-7-(isoxazol-3-ylmethyl)-4,6,6a,7,8,9-hexahydroindolo[4,3-fg]quinoline-9-carboxamide] | – | – | – | – | – | 13.6 | –
CCN(CC)C(=O)[C@@H]1C=C2c3cccc4[nH]cc(c34)C[C@H]2N(Cc2cocn2)C1 [Compound 73, (6aR,9R)—N,N-diethyl-7-(oxazol-4-ylmethyl)-4,6,6a,7,8,9-hexahydroindolo[4,3-fg]quinoline-9-carboxamide] | – | – | – | – | – | 8.2 | –
CCN(CC)C(=O)[C@@H]1C=C2c3cccc4[nH]cc(c34)C[C@H]2N(Cc2cccc(C#N)c2)C1 [Compound 76, (6aR,9R)—N,N-diethyl-7-(3-cyanobenzyl)-4,6,6a,7,8,9-hexahydroindolo[4,3-fg]quinoline-9-carboxamide] | – | – | – | – | – | 98.5 | –
CCN(CC)C(=O)[C@@H]1C=C2c3cccc4[nH]cc(c34)C[C@H]2N(Cc2ccccc2)C1 [Compound 82, (6aR,9R)-7-benzyl-N,N-diethyl-4,6,6a,7,8,9-hexahydroindolo[4,3-fg]quinoline-9-carboxamide] | – | 11.25 | (0.1) mg/kg, sc | (0.1) mg/kg, sc | 0.56 | 1.94 | –
CCN(C)C(=O)[C@@H]1C=C2c3cccc4[nH]cc(c34)C[C@H]2N(Cc2ccccc2)C1 [Compound 85, (6aR,9R)-7-benzyl-N-ethyl-N-methyl-4,6,6a,7,8,9-hexahydroindolo[4,3-fg]quinoline-9-carboxamide] | – | 6.625 | (0.32) mg/kg, sc | (0.32) mg/kg, sc | 0.33 | 1.27 | –
CC[C@@H](C)NC(=O)[C@@H]1C=C2c3cccc4[nH]cc(c34)C[C@H]2N(C)C1 [Int8] | – | 23.625 | (0.32) mg/kg, sc | (0.32) mg/kg, sc | 2.06 | – | –
CCN(CC)C(=O)[C@@H]1C=C2c3cccc4[nH]cc(c34)C[C@H]2N(C)C1 [LSD, lysergic acid diethylamide, reference compound] | – | – | – | – | – | – | head twitch response, automated (C57BL/6 mice; in vivo): potent and robust increase in HTRs; # HTR/20 min at Most Efficacious Dose (C57BL/6 mice; in vivo): 44.62 HTR/20 min; Most Efficacious Dose for # HTR/20 min (C57BL/6 mice; in vivo): (0.1) mg/kg, sc; Most Efficacious Dose for Peak HTR/min (C57BL/6 mice; in vivo): (0.032) mg/kg, sc; Peak HTR/min at Most Efficacious Dose (C57BL/6 mice; in vivo): 4.13 HTR/min
